For eight molecules, IC50 results are on record in patent US20240239752A1, “BICYCLIC HETEROAROMATIC INHIBITORS OF KLK5” (BioCryst Pharmaceuticals, Inc., priority 2021, published 2024).

Each structure is given as a SMILES string. Bounds are passed on as bounds.

Broadly, the IC50 is the concentration that inhibits the measured activity by half.

The target of the assay is T1, recombinant human KLK5 (Homo sapiens, UniProt Q9Y337).
T1 construct: purchased Novoprotein or R&D Systems C415 or 1108-SE
T1 sequence (Q9Y337 23-293): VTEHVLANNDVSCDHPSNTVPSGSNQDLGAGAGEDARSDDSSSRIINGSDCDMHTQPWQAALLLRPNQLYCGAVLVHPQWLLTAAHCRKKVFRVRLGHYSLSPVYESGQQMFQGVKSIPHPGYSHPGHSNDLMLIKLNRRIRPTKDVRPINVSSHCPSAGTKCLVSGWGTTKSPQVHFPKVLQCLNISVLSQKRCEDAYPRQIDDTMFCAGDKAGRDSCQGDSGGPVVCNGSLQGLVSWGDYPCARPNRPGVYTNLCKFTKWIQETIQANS
Description: Kallikrein (KLK) 5 enzymatic assay (Boc-VPR-AMC fluorogenic substrate). It is filed as biochemical. The note with it: recombinant human KLK5 0.1 μg/well, Boc-VPR-AMC 100 μM, pH 7.5, room temperature, 1% DMSO; tested a minimum of three times. A digest of the protocol:
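Recombinant human KLK5 (0.1 μg/well) was preincubated with compound at room temperature in 0.1 M NaH2PO4, pH 7.5, 1% DMSO, then started with 100 μM Boc-VPR-AMC. The rate was followed at 380/460 nm, and IC50 came from percent inhibition relative to enzyme alone, with at least three runs.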
As to `COC(=O)N1CCC2(CC1)CC(Oc1cc(OC)ccc1CC(=O)O)c1cc(-c3cccc4c(N)nccc34)ccc12` (centres unmarked) [Compound 453b, 2-(2-((5-(1-aminoisoquinolin-5-yl)-1′-(methoxycarbonyl)-2,3-dihydrospiro[indene-1,4′-piperidin]-3-yl)oxy)-4-methoxyphenyl)acetic acid], the IC50 was below 1000 nM.

As for `COC(=O)N1CCC2(CC1)CC(Oc1c(C#N)cccc1CC(=O)O)c1cc(-c3ccc4ccnc(N)c4c3)ccc12` (centres unmarked) [Compound 454c, 2-(2-((5-(1-aminoisoquinolin-7-yl)-1′-(methoxycarbonyl)-2,3-dihydrospiro[indene-1,4′-piperidin]-3-yl)oxy)-3-cyanophenyl)acetic acid], the IC50 is 1000 to 10000 nM.

With `COC(=O)N1CCC2(CC1)CC(Oc1c(C#N)cccc1CC(=O)O)c1cc(-c3cccc4c(N)nccc34)ccc12` (centres unmarked) [Compound 455b, 2-(2-((5-(1-aminoisoquinolin-5-yl)-1′-(methoxycarbonyl)-2,3-dihydrospiro[indene-1,4′-piperidin]-3-yl)oxy)-3-cyanophenyl)acetic acid], the IC50 is 1000 to 10000 nM.

As for `CC(C)N1CCN(C2CC(Oc3ccccc3CC(=O)O)c3cc(-c4cccc5c(N)nccc45)ccc32)CC1` (centres unmarked) [Compound 456g, 2-(2-((6-(1-aminoisoquinolin-5-yl)-3-(4-isopropylpiperazin-1-yl)-2,3-dihydro-1H-inden-1-yl)oxy)phenyl)acetic acid], the IC50 was below 1000 nM.

Turning to `CC(C)N1CCN(C2CC(Oc3ccccc3CC(=O)O)c3cc(-c4ccc5ccnc(N)c5c4)ccc32)CC1` (centres unmarked) [Compound 457b], the IC50 was below 1000 nM.

In the case of `Nc1nccc2c(-c3ccc4c(c3)c(COc3ccccc3CC(=O)O)cn4C3CCOC3)cccc12` (centres unmarked) [Compound 458f, 2-(2-((5-(1-aminoisoquinolin-5-yl)-1-(tetrahydrofuran-3-yl)-1H-indol-3-yl)methoxy)phenyl)acetic acid], the IC50 was below 1000 nM.

Turning to `Nc1nccc2c(-c3ccc4c(c3)[C@H](Oc3ccccc3CC(=O)O)C[C@H]4N3CCCCC3)cccc12` [Compound 459f, (+)-trans 2-(2-(((1R,3R)-6-(1-aminoisoquinolin-5-yl)-3-(piperidin-1-yl)-2,3-dihydro-1H-inden-1-yl)oxy)phenyl)acetic acid], the 50% inhibitory concentration (IC50) was below 1000 nM.

On to `Nc1nccc2c(-c3ccc4c(c3)[C@@H](Oc3ccccc3CC(=O)O)C[C@@H]4N3CCCCC3)cccc12` [Compound 459g, (−)-trans 2-(2-(((1S,3S)-6-(1-aminoisoquinolin-5-yl)-3-(piperidin-1-yl)-2,3-dihydro-1H-inden-1-yl)oxy)phenyl)acetic acid], for which the IC50 was 1000 to 10000 nM.
